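96-well plates; 48 h exposure; 5 concentrations. Endpoints by linear interpolation between flanking doses. Not reached: highest tested concentration assigned. The concentration for full growth arrest is given as TGI.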
Columns and labels:
Assay in all cases: growth of human tumour cells (NCI), 48 h
786-0 renal = system: 786-0 renal
A549 NSCLC = system: A549 NSCLC
ACHN renal = system: ACHN renal
CAKI-1 renal = system: CAKI-1 renal
CCRF-CEM leukemia = system: CCRF-CEM leukemia
COLO 205 colon = system: COLO 205 colon
DLD-1 colon = system: DLD-1 colon
DMS 273 small cell lung = system: DMS 273 small cell lung
EKVX NSCLC = system: EKVX NSCLC
HCC-2998 colon = system: HCC-2998 colon
HCT-15 colon = system: HCT-15 colon
HL-60(TB) leukemia = system: HL-60(TB) leukemia
HOP-62 NSCLC = system: HOP-62 NSCLC
HOP-92 NSCLC = system: HOP-92 NSCLC
IGROV1 ovarian = system: IGROV1 ovarian
K-562 leukemia = system: K-562 leukemia
KM12 colon = system: KM12 colon
KM20L2 colon = system: KM20L2 colon
LOX IMVI melanoma = system: LOX IMVI melanoma
LXFL 529 NSCLC = system: LXFL 529 NSCLC
M14 melanoma = system: M14 melanoma
MALME-3M melanoma = system: MALME-3M melanoma
MOLT-4 leukemia = system: MOLT-4 leukemia
NCI-H23 lung = system: NCI-H23 lung
NCI-H460 lung = system: NCI-H460 lung
NCI-H522 lung = system: NCI-H522 lung
OVCAR-3 ovarian = system: OVCAR-3 ovarian
OVCAR-4 ovarian = system: OVCAR-4 ovarian
OVCAR-5 ovarian = system: OVCAR-5 ovarian
OVCAR-8 ovarian = system: OVCAR-8 ovarian
RPMI-8226 leukemia = system: RPMI-8226 leukemia
RXF 393 renal = system: RXF 393 renal
RXF-631 renal = system: RXF-631 renal
SF-268 CNS = system: SF-268 CNS
SF-295 CNS = system: SF-295 CNS
SK-MEL-2 melanoma = system: SK-MEL-2 melanoma
SK-MEL-28 melanoma = system: SK-MEL-28 melanoma
SK-MEL-5 melanoma = system: SK-MEL-5 melanoma
SK-OV-3 ovarian = system: SK-OV-3 ovarian
SN12C renal = system: SN12C renal
SNB-19 CNS = system: SNB-19 CNS
SNB-75 CNS = system: SNB-75 CNS
SNB-78 CNS = system: SNB-78 CNS
SW-620 colon = system: SW-620 colon
TK-10 renal = system: TK-10 renal
UACC-257 melanoma = system: UACC-257 melanoma
UACC-62 melanoma = system: UACC-62 melanoma
UO-31 renal = system: UO-31 renal
XF 498 CNS = system: XF 498 CNS
HT29 colon = system: HT29 colon
M19-MEL melanoma = system: M19-MEL melanoma
SR leukemia = system: SR leukemia
U251 CNS = system: U251 CNS
A498 renal = system: A498 renal
DMS 114 small cell lung = system: DMS 114 small cell lung
HCT-116 colon = system: HCT-116 colon
HOP-18 NSCLC = system: HOP-18 NSCLC
NCI-H226 lung = system: NCI-H226 lung
SF-539 CNS = system: SF-539 CNS

Measured: TGI

COc1ccc2oc(-c3cc4cc(OC)ccc4o3)cc2c1
not listed: HT29 colon | M19-MEL melanoma | SR leukemia | U251 CNS | A498 renal | DMS 114 small cell lung | HCT-116 colon | HOP-18 NSCLC | NCI-H226 lung | SF-539 CNS
> 100 µM: all other assays above

COc1ccccc1/C=C1\N=C(C)OC1=O
not listed: 786-0 renal | A549 NSCLC | ACHN renal | DMS 273 small cell lung | EKVX NSCLC | HL-60(TB) leukemia | HOP-62 NSCLC | LOX IMVI melanoma | LXFL 529 NSCLC | NCI-H460 lung | RPMI-8226 leukemia | SF-268 CNS | SNB-75 CNS | UACC-257 melanoma | A498 renal | DMS 114 small cell lung | HCT-116 colon | HOP-18 NSCLC | NCI-H226 lung | SF-539 CNS
> 100 µM: all other assays above

COc1cc(-c2ccccc2)c(OC)cc1CCl
not listed: HOP-92 NSCLC | LOX IMVI melanoma | LXFL 529 NSCLC | SK-MEL-28 melanoma | SR leukemia
> 100 µM: all other assays above

CC(C)(C)C1CCP(=O)(c2ccccc2)CC1 (configuration not stated)
not listed: CAKI-1 renal | HOP-92 NSCLC | RXF-631 renal | SF-268 CNS
> 100 µM: all other assays above
